The target in one assay is T1, IKKε (IKBKE) (Homo sapiens, UniProt Q14164).
T1 sequence (Q14164 1-716): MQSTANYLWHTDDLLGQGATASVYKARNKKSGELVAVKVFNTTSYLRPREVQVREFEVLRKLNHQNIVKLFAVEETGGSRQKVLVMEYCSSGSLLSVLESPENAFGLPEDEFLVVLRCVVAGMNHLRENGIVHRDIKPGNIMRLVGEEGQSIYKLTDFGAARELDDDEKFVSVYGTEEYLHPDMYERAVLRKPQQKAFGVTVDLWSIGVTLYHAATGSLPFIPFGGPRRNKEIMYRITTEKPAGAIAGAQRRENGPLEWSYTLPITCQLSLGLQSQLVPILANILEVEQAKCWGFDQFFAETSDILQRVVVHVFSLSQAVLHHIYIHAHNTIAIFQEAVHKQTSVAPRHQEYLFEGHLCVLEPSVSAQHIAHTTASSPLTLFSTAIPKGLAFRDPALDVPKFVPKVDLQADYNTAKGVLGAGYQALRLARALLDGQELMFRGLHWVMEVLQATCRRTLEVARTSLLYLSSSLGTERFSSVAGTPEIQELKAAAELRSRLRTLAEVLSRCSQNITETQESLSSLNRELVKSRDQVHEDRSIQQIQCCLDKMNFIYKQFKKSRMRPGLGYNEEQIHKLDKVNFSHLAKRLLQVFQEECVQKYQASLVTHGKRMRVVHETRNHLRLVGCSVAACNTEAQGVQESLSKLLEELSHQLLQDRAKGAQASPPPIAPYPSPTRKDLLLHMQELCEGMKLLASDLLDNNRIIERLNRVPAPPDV
As to the kind of experiment: SelectScreen Kinase Profiling, IC50 for IKKε (IKBKE). The format is biochemical. The note with it: ATP Km app, ZLYTE; for inhibition: IKBKE (IKK epsilon). As for the experimental part: Biochemical single point inhibition and IC50 concentrations for TBK1, IKKε (IKBKE), and off-target kinases were determined at ThermoFisher Scientific using SelectScreen Kinase Profiling Services (Madison, Wis., USA) (Tables S4A and S4B-1-7). To determine cellular potency, the human colorectal cancer carcinoma cell line HCT116 (ATCC, Manassas, Va.) was maintained in T175 flasks in complete RPMI medium; RPMI 1640 supplemented with 10% FBS, 1× Penicillin-Streptomycin solution and 1×MEM (non-essential amino acids). HCT116 cells were grown to 90-95% confluency in T175 flasks containing complete RPMI medium and transfected in bulk using Lipofectamine 2000 (Invitrogen, Carlsbad, Calif.) with 70 μg of ISG54-luciferase reporter plasmid (Elim Biopharmaceuticals Inc., Hayward, Calif.). The reporter plasmid contains a luciferase gene expression cassette under the transcriptional regulation of the promoter of the human interferon stimulated gene 54 (ISG54). Transfection of the cells was allowed to take place for 6 hours, after which the cells were harvested by treatment with 0.25% trypsin EDTA (Corning Inc., Corning, N.Y.). Trypsinized cells were added to 384-well poly-d-lysine treated black clear bottom tissue culture assay plates (Greiner Bio-One GmbH, Kremsmünster, Austria) at a density of 20,000 cells/well in 80 μL of complete RPMI medium and incubated overnight. After 16-18 hours post-transfection, the assay plates were washed with PBS (Corning Inc., Corning, N.Y.), followed by addition of 80 μL/well of serum-free RPMI 1640 medium containing 1× Penicillin-Streptomycin solution, 1×MEM and 350 nL of DMSO or titrations of Compound 1. Compound 1 titrations were generated by 1.5-fold dilution steps in two overlapping serial dilution series to generate a 40-point compound dose range. After incubation at 37° C. for 1 hour, the cells were stimulated with Poly(I:C) (InvivoGen, San Diego, Calif.) at a final concentration of 15 μg/mL in Optimem media (Life Technologies, Rockville, Md.). The assay plates were incubated for 5 hours at 37° C., followed by addition of One-Glo luciferase firefly reagent (Promega, Madison, Wis.) at 1:1 volume/well and luminescence was measured in an EnVision Multilabel Plate Reader (PerkinElmer, Santa Clara, Calif.). The EC50 values were calculated from the fit of the dose-response curves to a four-parameter equation. All EC50 values represent geometric mean values of a minimum of four determinations.

The next assay relates to MC38 allograft. The assay can be described thus: MC38 allograft, Compound 1 and anti-PD-L1 combination in vivo. Set-up: species or system mouse. The note with it: Cmpd1 + αPD-L1; did not reach significance vs single-agent PD-L1.
A further assay deals with T2, off-target kinases (Homo sapiens, UniProt O43318).
T2 sequence (O43318 1-606): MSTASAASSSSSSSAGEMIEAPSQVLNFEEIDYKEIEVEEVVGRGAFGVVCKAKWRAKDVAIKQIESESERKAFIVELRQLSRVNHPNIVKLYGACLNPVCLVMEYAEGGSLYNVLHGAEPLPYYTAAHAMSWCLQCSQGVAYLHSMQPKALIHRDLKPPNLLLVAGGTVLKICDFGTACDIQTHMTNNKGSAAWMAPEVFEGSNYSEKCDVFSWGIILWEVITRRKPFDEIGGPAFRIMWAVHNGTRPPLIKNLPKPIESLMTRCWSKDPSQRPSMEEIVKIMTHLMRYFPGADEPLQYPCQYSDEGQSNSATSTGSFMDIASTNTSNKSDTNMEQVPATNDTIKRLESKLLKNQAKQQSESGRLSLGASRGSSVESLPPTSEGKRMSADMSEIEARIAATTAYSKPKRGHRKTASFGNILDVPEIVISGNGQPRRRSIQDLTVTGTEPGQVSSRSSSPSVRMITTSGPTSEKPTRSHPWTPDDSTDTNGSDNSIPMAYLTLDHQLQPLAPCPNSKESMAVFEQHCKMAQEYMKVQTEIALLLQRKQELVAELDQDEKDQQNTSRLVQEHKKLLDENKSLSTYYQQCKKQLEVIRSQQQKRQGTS
The assay can be described thus: SelectScreen Kinase Profiling, single point inhibition and IC50 for off-target kinases. The note with it: MAP3K7/MAP3K7IP1 (TAK1-TAB1); LanthaScreen Binding; 1000 μM. Set-up: other: MAP3K7/MAP3K7IP1 (TAK1-TAB1); 1000 μM; fused on or other part: TAB1 (MAP3K7IP1, Q15750), either fused to TAK1 or present as a separate partner chain. The format is biochemical. The protocol: Biochemical single point inhibition and IC50 concentrations for TBK1, IKKε (IKBKE), and off-target kinases were determined at ThermoFisher Scientific using SelectScreen Kinase Profiling Services (Madison, Wis., USA) (Tables S4A and S4B-1-7). To determine cellular potency, the human colorectal cancer carcinoma cell line HCT116 (ATCC, Manassas, Va.) was maintained in T175 flasks in complete RPMI medium; RPMI 1640 supplemented with 10% FBS, 1× Penicillin-Streptomycin solution and 1×MEM (non-essential amino acids). HCT116 cells were grown to 90-95% confluency in T175 flasks containing complete RPMI medium and transfected in bulk using Lipofectamine 2000 (Invitrogen, Carlsbad, Calif.) with 70 μg of ISG54-luciferase reporter plasmid (Elim Biopharmaceuticals Inc., Hayward, Calif.). The reporter plasmid contains a luciferase gene expression cassette under the transcriptional regulation of the promoter of the human interferon stimulated gene 54 (ISG54). […] The assay plates were incubated for 5 hours at 37° C., followed by addition of One-Glo luciferase firefly reagent (Promega, Madison, Wis.) at 1:1 volume/well and luminescence was measured in an EnVision Multilabel Plate Reader (PerkinElmer, Santa Clara, Calif.). The EC50 values were calculated from the fit of the dose-response curves to a four-parameter equation. […]

Like-named read-outs stand apart in the source and are kept apart here.

In general, inhibition refers to the relative decrease from the control value, in per cent. For orientation: IC50 means the point on the concentration scale where inhibition reaches its midpoint. On to `N#Cc1cc(-c2ncnc(Nc3ccc(N4CCN(C5COC5)CC4)cc3)n2)ccc1OC1CCOCC1` [Compound 1, 5-(4-((4-(4-(oxetan-3-yl)piperazin-1-yl)phenyl)amino)-1,3,5-triazin-2-yl)-2-((tetrahydro-2H-pyran-4-yl)oxy)benzonitrile], for which the inhibition on IKKε (IKBKE) (read-out: % Inhibition 1) is 106%; on IKKε (IKBKE) (read-out: % Inhibition 2), 103%; at IKKε (IKBKE) (read-out: % Inhibition Avg) it was 105%. This molecule came in with a Hillslope at IKKε (IKBKE) of 1.06. Further, half-maximal inhibition on IKKε (IKBKE) (IC50) was put at 5.59 nM. The “fold selectivity (IKBKE)” value at IKKε (IKBKE) (IC50 relative to IKBKE IC50) is given as 1.0 fold. Besides, the “fold selectivity (TBK1)” value at IKKε (IKBKE) (IC50 relative to TBK1 IC50) was found to be 5.4 fold. Besides, in the assay on MC38 allograft, the “in vivo survival, MC38 model, combination treatment” value is listed as “enhanced”. Also, the “% Inhibition 1” value at off-target kinases amounted to 22%.

The values are drawn from patent publication US11572590B2, “Methods for evaluating tumor cell spheroids using 3D microfluidic cell culture device” (Dana-Farber Cancer Institute, Inc., priority 2017, dated 2023).
